The test system of series [1] is Plasmid DNA. Briefly: Agarose gel electrophoresis of plasmid DNA with RuEuL / EuL. Format: biochemical. Particulars: 20 μM. As to the method: Furthermore, the interaction of photo-activated RuEuL with DNA was examined by agarose gel electrophoresis (FIG. 24). Plasmid DNA (22.5 μg/mL in Tris/EDTA (TE) buffer) was incubated with the compounds (20 μM), irradiated by 488 nm light (dose 50 J m^−2) or not (control) and then subjected to 1% agarose gel electrophoresis. The separated DNA was stained with GelRed Nucleic Acid Stain (BIOTIUM) and imaged using Tanon 1600 Gel Imaging System (Tanon Science & Technology Co., Ltd).

Series [2] concerns Plasmid DNA. Briefly: Agarose gel electrophoresis of plasmid DNA after UVA irradiation (PtEuL). Format: biochemical. Particulars: 20 μM, UVA light dose 50 J m^−2. From the text: The DNA gel images were obtained using GelRed Nucleic Acid Stain (BIOTIUM).
(§1) Direct binding of PtEuL with DNA in dark were studied by circular dichroism (CD). […] The interaction of photo-activated PtEuL with DNA was examined by agarose gel electrophoresis (FIG. 29B). After UVA irradiation with PtEuL, conversion of the supercoiled conformer of the plasmid DNA to its open-circular conformer, which indicates DNA nicking (single strand break) and linear conformer, which indicates double strand break, is clearly seen.

The test system of series [3] is HeLa cells. Briefly: Two-photon confocal microscopy of HeLa cells with PtEuL / EuL. Format: cell-based. On the procedure: Near infrared (NIR) excitation has increasingly been used in live cell imaging and photodynamic or photoactivated chemo-therapy because NIR photon (λ=650-900 nm) can penetrate deeper into tissues with pinpoint accuracy and little collateral photodamage. The two-photon photophysical properties of some antenna ligands of lanthanide complexes have been studied previously. The two-photon induced cytotoxicity of the EuL and PtEuL complexes towards HeLa cells after incubation at different dose concentrations (PtEuL: 0, 1, 2, 5, 10 μM; EuL: 0, 10, 20, 50, 100 μM) for 24 hours was studied using two-photon (λex=730 nm) confocal microscopy (FIGS. 30A-30C and FIGS. 33A and 33B). […] This is probably due to the lower cellular uptake rate of EuL because we no Eu emission was observed from the HeLa cells even after incubation in 100 μM of EuL, ceteris paribus.

Series [4] concerns HeLa cells. Briefly: Dark and photo cytotoxicity of RuEuL against HeLa cells. Format: cell-based, human. To be noted: for IC50: HeLa. On the procedure:
To determine the potential of RuEuL as a photo-controlled prodrug cell cytotoxicity studies were performed on human cervical cancer (HeLa) cells, and EuL as control (FIGS. 25A and 25B). Cells were incubated 6 hours in the dark before irradiation (488 nm, 1 J); dark controls were run in parallel.

A further series relates to A549. Put plainly: Dark cytotoxicity of Eu(III) complexes on A549 cells. Format: cell-based.
The next series relates to HeLa. Put plainly: Dark cytotoxicity of Eu(III) complexes on HeLa cells. In kind it is cell-based.
The nature of series [5]: Photo-induced dissociation of the cisplatin unit in tris buffer monitored by emission. Format: physicochemical. As to the method:
One of the key issues is the photodissociation level of the Pt moiety from the compounds described herein. The triplet states of the chromophores before and after photo-release the drug or upon binding with αvβ3 isoform were measured. Based on the synthetic protocols described herein, La (lanthanum) and Gd (gadolinium) analogs can be synthesized to measure the triplet states of the chromophores as well. The measurements of the triplet states of these chromophores phosphorescence and their phosphorescence lifetime was undertaken at low temperature (77K). The photodissociation kinetics of PtEuL were investigated by monitoring the emission spectrum with different irradiation times of UVA/NIR (light dosage=4 J cm^−2). The plot of responsive and initial emission intensity at 615 nm (^5D0→^7F2) vs time will be fitted in the exponential growth and decay equation to obtain the pseudo-first order rate constant.
The linear light induced dissociation of PtGdL in tris buffer (20 mM Tris base, 50 mM NaCl, pH 7.4) was monitored by determination of the emission intensity of solution of PtGdL in tris buffer with different light dosage of 365 nm UV light. In general, 3 mL of the solution of PtGdL (3 μM in tris buffer) in a 3.5 mL quartz cuvette was irradiated with a 365 nm UV lamp (5 mW) with stirring. The emission spectra of the solution were recorded at different time points (0, 1, 3, 5, 7, 10, 15, 20, 30, 45, 60, 75 and 90 min).
(Ln=Eu or Gd). The solution-state electronic adsorption and emission spectra of all the complexes and the ligand were recorded at 298 K (FIGS. 28A-28D). The EuL complex is the product of PtEuL after photo-dissociation and was used to monitor the photo-dissociation of [Pt—(NH3)2Cl]^+ from PtEuL. […] The photo-dissociation of PtEuL (3 μM in Tris-buffer, pH=7.4, 50 mM NaCl) was monitored by the variation of the Eu emission (λem=615 nm, ^5D0→^7F2) with the irradiation time. […] The pseudo-first order rate constant k was determined to be 0.53 min^−1 under these experimental conditions (FIG. 28D).

Series [6] has as its system Plasmid DNA. Put plainly: Circular dichroism of plasmid DNA with PtEuL in dark. Format: binding. Particulars: 50 μM, 37° C., 12 h.
From the text: as §1
Background: CD spectra are sensitive to the conformation of chiral molecules.

Series [7] has as its system HeLa cells. Briefly: Confocal microscopy of light-induced cytotoxicity of RuEuL. To be noted: 50 μM RuEuL or 10 μM PtEuL, 6 hours, 7 mW. Format: cell-based, human. From the text: The light-induced cytotoxicity of RuEuL towards HeLa cells was also investigated by confocal microscopy (FIG. 26B) with the PtEuL complex tested under identical conditions for comparison. […] In cell culture studies, red Eu(III) emission from RuEuL was observed after 15-min irradiation. (FIG. 26A) The emission intensity increased with longer irradiation time because more excitation energy induced the dissociation of more Ru(II) moieties from the parent molecules, and the resulting EuL units generated stronger light emission. […] PtEuL is photo-activated upon ultraviolet A irradiation (λ=365 nm). However, UVA irradiation could cause severe adverse effects on human cells.

Series [8] can be described thus: Photo-induced dissociation and dark stability of RuEuL in aqueous solution. Format: physicochemical. On the procedure: The photo-induced dissociation of RuEuL was simultaneously studied by emission (FIG. 21) spectroscopy, and by HPLC (FIG. 22) of the RuEuL solution (5 μM in H2O) after continuous irradiation with visible light (λirr.=488 nm, 1 W) during various times (1-8 min). After irradiation, turned-on europium emission is observed. This observation can be explained by the existence of dissociative states on Ru(II), which were proposed by Saddler et al. The photo-dissociation products, EuL and [Ru(OH)(bpy)2(H2O)]^+, have been further qualitatively identified by HPLC (FIG. 22). Before light irradiation, only one HPLC peak corresponding to RuEuL (retention time, R=11.3 min) is observed. After irradiation, this peak disappears, and two peaks of dissociated photoproducts appear.
In order to obtain the exact amount of the photo-released ruthenium(II) moiety for biomedical purpose and to evaluate drug release in real time, quantitative analysis is required. It can be achieved by LC/ESI-MS for simultaneous detection of the photo-products EuL and [Ru(OH)(bpy)2(H2O)]^+. Moreover, the switchable europium(III) emission can be considered as a real-time signaling technique for the released anticancer Ru(II) complexes and can also be exploited quantitatively. […]

Setting [9] is: 6 hours in the dark then irradiation (488 nm, 1 J), read-out: light IC50.
Setting [10] is: mean ± SD of three independent experiments.

Consider 3 molecules from patent US10183027B2, “Lanthanide toolbox for multi-modal, non-invasive tumor specific theranostic prodrugs” (priority 2016, dated 2019).

Structures are written as SMILES. Like-named read-outs stand apart in the source and are kept apart here.

Regarding `O.O=C([O-])CN1CCN(CC(=O)[O-])CCN(Cc2cc(C#Cc3ccc(NC(=O)c4ccncc4)cc3)ccn2)CCN(CC(=O)[O-])CC1.[Eu+3]` [EuL], the “interaction with DNA” value in the series on Plasmid DNA [1] is given as “does not interact with DNA”. The DNA photocleavage activity entry in the series on Plasmid DNA [2] is “not at all”. Further, the “red emission from treated cells” value with HeLa cells [3] (identical conditions, up to 100 μM) is listed as “no red emission was detected”. Besides, the “toxicity towards HeLa cells” value with HeLa cells [4] (control) was “almost no toxicity”. For the same molecule, the “toxicity towards A549” value in the series on A549 (identical conditions) is on record as “no toxicity”. For the same molecule, in the series on HeLa (identical conditions), the “toxicity towards HeLa” value was “no toxicity”.

Regarding `O.O=[N+]([O-])[O-].[Eu+3].[NH3+][Pt-2]([NH3+])([Cl])[n+]1ccc(C(=O)Nc2ccc(C#Cc3ccnc(CN4CCN(CC(=O)[O-])CCN(CC(=O)[O-])CCN(CC(=O)[O-])CC4)c3)cc2)cc1` [PtEuL], the DNA photocleavage activity result in the series with Plasmid DNA [2] is “strong DNA photocleavage activity”. In addition, in [5] (3 μM in Tris-buffer pH 7.4, 50 mM NaCl, UVA 365 nm), the “pseudo-first order rate constant k (I/I0 @ 615 nm vs. time)” value is 0.53 min⁻¹. The “pseudo-first order rate constant k for the dissociation of the cisplatin unit” value in [5] (tris buffer pH 7.4, UV 365 nm, 5 mW) amounted to 0.053 min⁻¹. The “direct binding with DNA in dark (CD)” value in the series on Plasmid DNA [6] was “can directly bind to DNA and unwind its helix”. For the same molecule, in the series on HeLa cells [3] (24 hours incubation, 30 min intermittent two-photon excitation 730 nm), the “concentration at which red emission was observed in the cell” value is > 2 µM. The results for the IC50 with HeLa cells [4] (setting [9]), in the series with A549 (setting [10]) and with HeLa (setting [10]) were 22.9 µM, 49.5 ± 0.1 µM and 22.5 ± 0.5 µM, respectively. Also, the “cell damage and red emission on 488 nm laser irradiation” value in the series with HeLa cells [7] is on record as “no red emission or cell death”.

Regarding `O.O=C([O-])CN1CCN(CC(=O)[O-])CCN(Cc2cc(C#Cc3ccc(NC(=O)c4cc[n+]([Ru-4]56([Cl])([n+]7ccccc7-c7cccc[n+]75)[n+]5ccccc5-c5cccc[n+]56)cc4)cc3)ccn2)CCN(CC(=O)[O-])CC1.[Cl-].[Eu+3]` [RuEuL], in the series with Plasmid DNA [1] (488 nm light, dose 50 J m^−2), the “migration of DNA with light excitation” value is given as “delayed”. Also, the “migration of DNA without irradiation” value with Plasmid DNA [1] (control lanes) was “left the DNA intact and showed normal migration”. The IC50 (as a rule, the concentration that inhibits the measured activity by half) with HeLa cells [4] (setting [9]) was 32.5 µM; with HeLa cells [4] (dark, read-out: dark IC50) it was > 200 µM. In the series with HeLa cells [7], the “cell damage and red emission on 488 nm laser irradiation” value is “cell lysis was detected after 15-min irradiation”. Besides, the “pseudo-first order rate constant k of photo-dissociation” value in series [8] (5 μM in H2O, visible laser irradiation, 1 W) was found to be 0.43 min⁻¹. Moreover, the “stability in the dark” value in series [8] (dark, 37° C., 24 hours) was “stable”.
